Measurements from publication PMC2363627 (British Journal of Cancer, 2001).
Where “and” joins values, the source holds several entries; their conditions need not be identical. Equal entries are not always repeated. Entries after “also recorded” stand apart in the source; their conditions may differ.

What was measured:
[1] = Plasma pharmacokinetics of oral paclitaxel 120 mg/m2 combined with 1000 mg oral GF120918 in cancer patients (HPLC, non-compartmental); conditions: for mean AUCt of paclitaxel metabolite: after oral paclitaxel 120 mg/m2 + GF120918, n = 5, mean SD
Description: (§1) Furthermore, oral administration may enable development of chronic treatment schedules resulting in sustained plasma concentrations above a pharmacological relevant threshold level. […] PATIENTS AND METHODS Patient population Patients with a histologically confirmed cancer refractory to current therapies were eligible for the study. Previous radiotherapy or chemotherapy other than taxoid therapy was allowed, provided that the last treatment was at least four weeks prior to study entry and any resulting toxicities were resolved. […] Patients were not eligible if they suffered from uncontrolled infec- tious disease, neurologic disease, bowel obstruction or sympto- matic brain metastases. Other exclusion criteria were concomitant use of known P-gp inhibitors and chronic use of H2-receptor antagonists or proton pump inhibitors. The study protocol was approved by the Medical Ethics Committee of the Institute and all patients gave written informed consent. […] The oral and i.v. course were randomized. […] Patient evaluation Pretreatment evaluation included a complete medical history and complete physical examination. Before each course, an interim history including concomitant medications taken, toxicities and performance status were registered and a physical examination was performed. Haematology was checked twice weekly after course 1 and 2 and weekly after subsequent courses. Blood chemistries including liver and renal function, serum electrolytes, total protein and albumin and glucose levels were checked weekly. All toxicities observed were graded according to the National Cancer Institute Common Toxicity Criteria (NCI CTC) (National Cancer Institute, 1988). Dose-limiting toxicities (DLT) were defined as grade 4 granulocytopenia of a duration of > 5 days, grade 4 thrombocytopenia of any duration or any grade 3/4 non- haematological toxicity except untreated nausea and vomiting. Tumour measurements were performed every other cycle, but initially after the first 2 i.v. courses. Responses were evaluated according to the WHO criteria (World Health Organization, 1979). Sample collection and analysis Blood samples for pharmacokinetic analyses were collected during course 1 and course 2. […] Blood samples were centrifuged, plasma was separated and samples were immediately stored at -20C until analysis. […] Blood samples were centrifuged at 4C, plasma was separated and samples were imme- diately stored at -20C until analysis. […] Pharmacokinetic analysis Non-compartmental pharmacokinetic methods were applied to process the results (Gibaldi and Perrier, 1982). […] The time above the threshold concentrations of 0.05 M and 0.1 M (T > 0.05 M, T > 0.1 M) was determined using linear interpola- tion. […] Statistical analysis of the data was performed using the nonparametric Mann-Whitney U-test. The a priori level of signifi- cance was P = 0.05.

[2] = Plasma pharmacokinetics of oral paclitaxel 120 mg/m2 combined with 15 mg kg-1 cyclosporin A in patients (previous study at the Institute); assay type: in vivo, human; conditions: for mean AUCt of paclitaxel metabolite: after oral paclitaxel + CsA, n = 3, mean SD, not published before
Description: as §1, with “The a priori level of signifi- cance was P = 0.05.” left out

[3] = Plasma pharmacokinetics of GF120918 after a single 1000 mg oral dose in cancer patients (HPLC); assay type: in vivo, human; conditions: 1000 mg oral GF120918; mean SD
Description: (§2) Furthermore, oral administration may enable development of chronic treatment schedules resulting in sustained plasma concentrations above a pharmacological relevant threshold level. […] PATIENTS AND METHODS Patient population Patients with a histologically confirmed cancer refractory to current therapies were eligible for the study. Previous radiotherapy or chemotherapy other than taxoid therapy was allowed, provided that the last treatment was at least four weeks prior to study entry and any resulting toxicities were resolved. […] Patients were not eligible if they suffered from uncontrolled infec- tious disease, neurologic disease, bowel obstruction or sympto- matic brain metastases. Other exclusion criteria were concomitant use of known P-gp inhibitors and chronic use of H2-receptor antagonists or proton pump inhibitors. The study protocol was approved by the Medical Ethics Committee of the Institute and all patients gave written informed consent. […] The oral and i.v. course were randomized. […] Patient evaluation Pretreatment evaluation included a complete medical history and complete physical examination. […] Responses were evaluated according to the WHO criteria (World Health Organization, 1979). […] The time above the threshold concentrations of 0.05 M and 0.1 M (T > 0.05 M, T > 0.1 M) was determined using linear interpola- tion. […]

[4] = tested on: P-gp; design: method as in Hyafil et al, 1993; conditions: ref Hyafil et al, 1993; cited from earlier work
[5] = Toxicity in patients graded by NCI Common Toxicity Criteria; conditions: one course oral paclitaxel 120 mg/m2 + 1000 mg GF120918
Description: as §2

[6] = design: method as in Malingre et al, 2000; conditions: ref Malingre et al, 2000, cited from earlier work
[7] = cited from earlier work
[8] = Plasma pharmacokinetics of i.v. paclitaxel 175 mg/m2 as 3-hour infusion in cancer patients (limited sampling model); assay type: in vivo, human; conditions: for AUC: human, plasma, iv
Description: as §1

[9] = tested on: histologically confirmed cancer refractory to current therapies; assay: Tumour response according to WHO criteria; assay type: in vivo, human; conditions: six patients; one oral course + GF120918, subsequent i.v. paclitaxel courses
Description: as §2

[10] = individual patients 1-6, oral 120 mg/m2 + GF120918 1000 mg

CC(=O)O[C@H]1C(=O)[C@@]2(C)[C@H]([C@H](OC(=O)c3ccccc3)[C@]3(O)C[C@H](OC(=O)[C@H](O)[C@@H](NC(=O)c4ccccc4)c4ccc(O)cc4)C(C)=C1C3(C)C)[C@]1(OC(C)=O)CO[C@@H]1C[C@@H]2O [3p-hydroxypaclitaxel]
mean AUCt of paclitaxel metabolite [1]: 0.36 µM·h
mean AUCt of paclitaxel metabolite [2]: 0.48 µM·h

CC(=O)O[C@H]1C(=O)[C@@]2(C)[C@H]([C@H](OC(=O)c3ccccc3)[C@]3(O)C[C@H](OC(=O)[C@H](O)[C@@H](NC(=O)c4ccccc4)c4ccc(O)cc4)C(C)=C1C3(C)C)[C@]1(OC(C)=O)CO[C@@H]1[C@@H](O)[C@@H]2O [6,3p-dihydroxypaclitaxel]
mean AUCt of paclitaxel metabolite [1]: 0.24 µM·h
mean AUCt of paclitaxel metabolite [2]: 0.88 µM·h

CC(=O)O[C@H]1C(=O)[C@@]2(C)[C@H]([C@H](OC(=O)c3ccccc3)[C@]3(O)C[C@H](OC(=O)[C@H](O)[C@@H](NC(=O)c4ccccc4)c4ccccc4)C(C)=C1C3(C)C)[C@]1(OC(C)=O)CO[C@@H]1[C@@H](O)[C@@H]2O [6-hydroxypaclitaxel]
mean AUCt of paclitaxel metabolite [1]: 0.4 µM·h
AUCt ratio 6-hydroxypaclitaxel/3p-hydroxypaclitaxel ([1]; oral paclitaxel + GF120918 (0.40/0.36)): 1.1
mean AUCt of paclitaxel metabolite [2]: 1.69 µM·h
AUCt ratio 6-hydroxypaclitaxel/3p-hydroxypaclitaxel ([2]; oral paclitaxel + CsA (1.69/0.48)): 3.5

COc1cc2c(cc1OC)CN(CCc1ccc(NC(=O)c3cccc4c(=O)c5cccc(OC)c5[nH]c34)cc1)CC2 [GF120918]
mean maximum concentration of GF120918 [3]: 434 267 ng ml-1
concentration at which active in in vitro models of P-gp inhibition [4]: around 20 nM

CC(=O)O[C@H]1C(=O)[C@@]2(C)[C@H]([C@H](OC(=O)c3ccccc3)[C@]3(O)C[C@H](OC(=O)[C@H](O)[C@@H](NC(=O)c4ccccc4)c4ccccc4)C(C)=C1C3(C)C)[C@]1(OC(C)=O)CO[C@@H]1C[C@@H]2O [paclitaxel]
tolerability of the oral combination of paclitaxel with GF120918 [5]: well tolerated; also recorded: very well tolerated
mean AUC of paclitaxel ([6]; oral paclitaxel 120 mg/m2 + CsA, previously performed study, mean ± SD): 2.55 ± 2.29 µM·h
Cmax ([6]; read-out: Cmax, oral paclitaxel, oral 120 mg/m2 + 15 mg kg-1 cyclosporin A, n = 3, mean SD): 310 nM
oral bioavailability of paclitaxel ([7]; background statement, no P-gp blocker, no reference given): < 10%
increase in oral bioavailability of paclitaxel by co-administration of CsA ([7]; cancer patients, oral paclitaxel + CsA, ref Meerum Terwogt et al, 1998, 1999): at least 7 fold
bioavailability of single agent oral paclitaxel ([7]; oral 60 mg/m2 without P-gp blocker, vs i.v. 175 mg/m2, ref Meerum Terwogt et al, 1998, 1999): 4%
apparent bioavailability of oral paclitaxel as a single agent ([7]; using i.v. paclitaxel data at 100 mg/m2 and 125 mg/m2 (Huizing et al, 1997), ref Meerum Terwogt et al, 1999): 6%
T > 0.1 µM, oral paclitaxel (time above 0.1 µM) [1, 10]: 8.8 h and 15.3 h and 9.6 h and 2.6 h and 4.2 h and 4.3 h
T > 0.05 M, oral paclitaxel (time above 0.05 M) [1, 10]: 15.1 h and 25.0 h and 23.9 h and 3.9 h and 6.1 h and 6.7 h
AUC ([8]; 175 mg/m2, AUC, i.v. paclitaxel, individual patients 1-6, 175 mg/m2, 3-hour infusion): 18.6 µM·h
AUC ([8]; 175 mg/m2, AUC, i.v. paclitaxel, mean SD, n = 6, 175 mg/m2, 3-hour infusion): 15.9 µM·h
AUC ([8]; 175 mg/m2, mean AUC of paclitaxel, i.v. paclitaxel 175 mg/m2, 3-hour infusion, mean ± SD): 15.9 µM·h
T > 0.1 µM, i.v. paclitaxel ([8]; individual patients 1-6, 175 mg/m2, 3-hour infusion): 22.3 h and 12.1 h and 20.9 h and 13.8 h and 16.6 h and 13.9 h
T > 0.1 µM, i.v. paclitaxel ([8]; mean, n = 6 (SD 4.2 printed in separate line), 175 mg/m2, 3-hour infusion): 16.6 h
tumour responses [9]: no tumour responses were observed
